# Laboratory results from US20230174649A1, “PHARMACEUTICAL COMPOSITIONS CONTAINING ANTI-CD47 ANTIBODIES” (I-MAB BIOPHARMA US LIMITED, priority 2020, published 2023).
# Where “and” joins values, the source holds several entries; their conditions need not be identical. Equal entries are not always repeated.
# How the values were obtained:
# macrophages = assay: Macrophage Viability Assay (CellTiter-Glo); type: cell-based, Human; conditions: for Macrophage viability (CellTiter-Glo Luminescent Cell Viability Assay): 16 hours, three replicate lines
# In short: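 Human monocytes (MACS-isolated) were differentiated 6 days with GM-CSF (50 ng/ml) and IL-4 (35 ng/ml), plated at 0.05×10^6 cells/well and allowed 2 h to attach. Compounds were co-cultured for 16 h. Viability was read by CellTiter-Glo luminescence.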
# CD47 = assay: FACS analysis of expression level of CD47 on tumor cell surface; type: cell-based, Human; conditions: Toledo cells; for Mean Fluorescence Intensity (MFI) CD47: 12 hours
# In short: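 Toledo cells (0.2×10^6 cells/well) were treated with small-molecule agents for 12 hours. Harvested cells were stained with anti-calreticulin and anti-CD47 antibodies in the dark at 4° C for 30 min, then read by flow cytometry.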
# HL-60 cells = assay: Anti-tumor efficacy in subcutaneous HL-60 xenograft model; type: in vivo, female NOG mice; conditions: for antitumor activity compared with the control group: day 12; for Tumor volume / Tumor Size (mm^3) at day 12, Mean ± SEM: listed as AZA
# Method: HL-60 cells (a human promyelocytic leukemia cell line, ATCC® cat #CCL-240) were maintained in suspension culture in complete cell growth medium at 37° C. in an atmosphere with 5% CO2. The cells were split twice a week to maintain an exponential growth. After culturing, cells were harvested and counted for tumor inoculation.
# To establish the xenograft model, HL-60 cells (10×10^6) were suspended in 0.2 mL of PBS with the same volume of Matrigel and subcutaneously injected into the right flank of each mouse. When tumor volume reaches a mean value of approximately 72 mm^3, i.e., on day 6 after inoculation, mice were divided into several groups and treated with PBS (control group), anti-CD47 antibody (i.e., T4J), AZA, or a combination of T4J and AZA, respectively.
# At the time of routine monitoring, the animals were daily checked for any effects of tumor growth and treatments on normal behavior such as mobility, food and water consumption (by looking only), body weight gain/loss (body weights were measured twice a week), eye/hair matting and any other abnormal effects. Death and observed clinical signs were recorded.
# Tumor size was measured twice a week in two dimensions using a caliper, and the volume was calculated using the formula: Volume (V)=(L×W×W)/2, where L is tumor length (the longest tumor dimension) and W is tumor width (the longest tumor dimension perpendicular to L). The tumor volume was then used for calculating T/C values. The T/C value (in percentage) is an indicator of antitumor effectiveness, in which T and C are the mean volumes of the treatment group and the control groups, respectively.
# The percentage of tumor growth inhibition (TGI) was calculated for each group as follows: 100%×(1−[(Vtreated(^final day)−Vtreated(^initial day))/Vcontrol(^final day)−Vcontrol(^initial day)))], where V is the tumor volume.
# Tumor body weight was measured at the end of the study. T/C weight value (in percentage) was calculated using the formula: T/C weight %=T weight/C weight×100% where T weight and C weight were the mean tumor body weight of the treatment group and the control group (vehicle group), respectively.
# Q=TGI(A+B))/(TGI(A)+TGI(B)−TGI(A)×TGI(B))
# According to Jin's formula, Q<0.85 indicates antagonistic effect, 0.85≤Q<1.15 indicates additive effect, and Q≥1.15 indicates synergistic effect.
# T-test was performed to compare tumor body weight among groups. One-way ANOVA was performed to compare tumor volume among groups, and when a significant F-statistics (a ratio of treatment variance to the error variance) was obtained, comparisons between groups were carried out with Games-Howell test. All data were analyzed using IBM SPSS software. A P value of less than 0.05 (p<0.05) was considered statistically significant.
# Toledo Cells = assay: FACS-based phagocytosis assay, macrophages cocultured with Toledo cells; type: cell-based, Human
# Method: FACS-based phagocytosis assays were performed to evaluate the phagocytic abilities of macrophages.
# Toledo Cells (a tumor cell line, as a target) were labelled with CellTrace™ Far Red and plated into 96-well plate at a density of 0.15×10^6 cells/well for 12 hours. The Macrophages were prepared as discussed above and then labelled with CellTrace Violet. Next, the macrophages were added into the plate as an effector at an effector:target (Toledo) ratio of 1:3, giving a final density of macrophages at 0.05×10^6 cells/well. Macrophages and tumor cells were cocultured for 2-6 h at 37° C. in the presence of the indicated treatments (small molecule therapeutic agents, CD47 antibody, CD20 antibody or combinations). The incubation time depending on the phagocytosis rate, expecting phagocytosis of 5-20% cells.
# Then, cells were acquired and data were analyzed.
smiles,measurement,setting,value
Nc1ncn([C@@H]2O[C@H](CO)[C@@H](O)[C@H]2O)c(=O)n1 [Azacitidine],Macrophage viability (CellTiter-Glo Luminescent Cell Viability Assay),macrophages; Cpd 0.002 uM,4076 and 6020 and 5860
same,Macrophage viability (CellTiter-Glo Luminescent Cell Viability Assay),macrophages; Cpd 0.008 uM,4648 and 6100 and 6132
same,Macrophage viability (CellTiter-Glo Luminescent Cell Viability Assay),macrophages; Cpd 0.04 uM,4792 and 5892 and 6380
same,Macrophage viability (CellTiter-Glo Luminescent Cell Viability Assay),macrophages; Cpd 0.2 uM,5160 and 6136 and 6440
same,Macrophage viability (CellTiter-Glo Luminescent Cell Viability Assay),macrophages; Cpd 1 uM,5140 and 6108 and 6256
same,Macrophage viability (CellTiter-Glo Luminescent Cell Viability Assay),macrophages; Cpd 5 uM,4768 and 6132 and 6032
same,Macrophage viability (CellTiter-Glo Luminescent Cell Viability Assay),macrophages; Cpd 25 uM,4560 and 5520 and 5324
same,Macrophage viability (CellTiter-Glo Luminescent Cell Viability Assay),macrophages; Cpd 50 uM,4580 and 5420 and 4932
same,toxicity to macrophages,macrophages; dose as high as 50 μM,showed toxicity
same,toxicity to macrophages,macrophages; dose lower than 10 μM,little toxic
same,Mean Fluorescence Intensity (MFI) CD47,CD47; 0.008 uM,8204
same,Mean Fluorescence Intensity (MFI) CD47,CD47; 0.04 uM,8062
same,Mean Fluorescence Intensity (MFI) CD47,CD47; 0.2 uM,8460
same,Mean Fluorescence Intensity (MFI) CD47,CD47; 1 uM,6638
same,Mean Fluorescence Intensity (MFI) CD47,CD47; 5 uM,5229
same,inhibition of CD47 expression,CD47; dose of 5 μM,~50%
same,antitumor activity compared with the control group,HL-60 cells; 1 mg/kg,no obvious antitumor activity
same,antitumor activity compared with the control group,HL-60 cells; 2 mg/kg,certain anti-tumor activity
same,"Tumor volume (mm^3), Mean ± SEM","HL-60 cells; day 0 (first dosing), 1 mg/kg",70 ± 7 mm^3
same,"Tumor volume (mm^3), Mean ± SEM","HL-60 cells; day 0 (first dosing), 2 mg/kg",70 ± 7 mm^3
same,"Tumor volume (mm^3), Mean ± SEM","HL-60 cells; day 3, 1 mg/kg",189 ± 11 mm^3
same,"Tumor volume (mm^3), Mean ± SEM","HL-60 cells; day 3, 2 mg/kg",161 ± 20 mm^3
same,"Tumor volume (mm^3), Mean ± SEM","HL-60 cells; day 7, 1 mg/kg",589 ± 41 mm^3
same,"Tumor volume (mm^3), Mean ± SEM","HL-60 cells; day 7, 2 mg/kg",498 ± 82 mm^3
same,"Tumor volume (mm^3), Mean ± SEM","HL-60 cells; day 10, 1 mg/kg",1142 ± 86 mm^3
same,"Tumor volume (mm^3), Mean ± SEM","HL-60 cells; day 10, 2 mg/kg",773 ± 145 mm^3
same,T/C (%),"HL-60 cells; day 12, 1 mg/kg",70.21%
same,TGI (%),"HL-60 cells; day 12, 1 mg/kg",30.52%
same,"Tumor volume / Tumor Size (mm^3) at day 12, Mean ± SEM","HL-60 cells; day 12, 1 mg/kg",2081±177 mm^3
same,T/C (%),"HL-60 cells; day 12, 2 mg/kg",48.98%
same,TGI (%),"HL-60 cells; day 12, 2 mg/kg",52.27%
same,"Tumor volume / Tumor Size (mm^3) at day 12, Mean ± SEM","HL-60 cells; day 12, 2 mg/kg",1452±253 mm^3
same,macrophage phagocytosis (untreated = 1.00),"Toledo Cells; Cpd 0.0016 uM, T4J = 0, R = 0",1.09
same,macrophage phagocytosis (untreated = 1.00),"Toledo Cells; Cpd 0.0016 uM, T4J = 0, R = 0.01 ug/ml",1.63
same,macrophage phagocytosis (untreated = 1.00),"Toledo Cells; Cpd 0.0016 uM, T4J = 0.1 ug/ml, R = 0",2.66
same,macrophage phagocytosis (untreated = 1.00),"Toledo Cells; Cpd 0.0016 uM, T4J = 0.1 ug/ml, R = 0.01 ug/ml",3.26
same,macrophage phagocytosis (untreated = 1.00),"Toledo Cells; Cpd 0.008 uM, T4J = 0, R = 0",1.07
same,macrophage phagocytosis (untreated = 1.00),"Toledo Cells; Cpd 0.008 uM, T4J = 0, R = 0.01 ug/ml",1.73
same,macrophage phagocytosis (untreated = 1.00),"Toledo Cells; Cpd 0.008 uM, T4J = 0.1 ug/ml, R = 0",2.69
same,macrophage phagocytosis (untreated = 1.00),"Toledo Cells; Cpd 0.008 uM, T4J = 0.1 ug/ml, R = 0.01 ug/ml",3.18
same,macrophage phagocytosis (untreated = 1.00),"Toledo Cells; Cpd 0.04 uM, T4J = 0, R = 0",1.12
same,macrophage phagocytosis (untreated = 1.00),"Toledo Cells; Cpd 0.04 uM, T4J = 0, R = 0.01 ug/ml",1.71
same,macrophage phagocytosis (untreated = 1.00),"Toledo Cells; Cpd 0.04 uM, T4J = 0.1 ug/ml, R = 0",2.76
same,macrophage phagocytosis (untreated = 1.00),"Toledo Cells; Cpd 0.04 uM, T4J = 0.1 ug/ml, R = 0.01 ug/ml",3.29
same,macrophage phagocytosis (untreated = 1.00),"Toledo Cells; Cpd 0.2 uM, T4J = 0, R = 0",1.16
same,macrophage phagocytosis (untreated = 1.00),"Toledo Cells; Cpd 0.2 uM, T4J = 0, R = 0.01 ug/ml",1.69
same,macrophage phagocytosis (untreated = 1.00),"Toledo Cells; Cpd 0.2 uM, T4J = 0.1 ug/ml, R = 0",2.57
same,macrophage phagocytosis (untreated = 1.00),"Toledo Cells; Cpd 0.2 uM, T4J = 0.1 ug/ml, R = 0.01 ug/ml",3.13
same,macrophage phagocytosis (untreated = 1.00),"Toledo Cells; Cpd 1 uM, T4J = 0, R = 0",1.30
same,macrophage phagocytosis (untreated = 1.00),"Toledo Cells; Cpd 1 uM, T4J = 0, R = 0.01 ug/ml",1.94
same,macrophage phagocytosis (untreated = 1.00),"Toledo Cells; Cpd 1 uM, T4J = 0.1 ug/ml, R = 0",2.70
same,macrophage phagocytosis (untreated = 1.00),"Toledo Cells; Cpd 1 uM, T4J = 0.1 ug/ml, R = 0.01 ug/ml",3.45
same,phagocytic ability of macrophages,Toledo Cells; agent itself or antibody combination,can also enhance the phagocytic ability of macrophages
same,phagocytic ability of macrophages,"Toledo Cells; triple combination: T4J, Rituximab and the small molecule",enhances the phagocytic ability of macrophages much higher
